Common to all, as to type: in vivo, human
The subject of assay [1] is airway epithelial brushings. The assay is described as follows: Taqman / real-time PCR gene expression in airway epithelial brushings, fluticasone trial. As for the experimental part: Brushings yielded 1,300,000±800,000 cells of which 97±3% were epithelial. For microarray analysis, […] total epithelial RNA was amplified using NuGen Ovation RNA amplification system. Then 2.75 μg sscDNA was hybridized to Affymetrix U133 plus 2.0 arrays (>54,000 probe sets coding for 38,500 genes). Array images were analyzed using Affymetrix GeneChip Expression Analysis Software. Bioconductor^5 was used for quality control (affyPLM algorithm), preprocessing (RMA algorithm), cluster analysis, and linear modeling.^5-7 Raw array data are available from the Gene Expression Omnibus public database (http://www.ncbi.nlm.nih.gov/geo/, accession number pending). Selected microarray findings were confirmed by real-time PCR, enzyme linked immunosorbent assay (ELISA) or immunohistochemistry. In vitro studies of the effects of interleukin-13 (IL-13) on expression of selected genes were performed using primary airway epithelial cells grown at an air-liquid interface (additional detail in supplementary appendix).
In further analysis of the same dataset we have identified six genes (Table 4) which are differentially expressed in airway epithelial brushings from asthmatics asthma or altered by corticosteroid treatment of asthmatic subjects and which have not previously been implicated in asthma or in the mechanism of steroid benefit in asthma.

The test system of the next assay is serpinB2 protein. The assay is described as follows: ELISA for serpinB2 protein levels in bronchoalveolar lavage. The settings on record: Post-fluticasone (follow-up bronchoscopy, 1 week). An excerpt:
Periostin and serpin B2 have not previously been associated with asthma, and we examined their expression at the protein level. […] However, in asthmatics, serpinB2 levels increased in all subjects at the second bronchoscopy (Table 4s, supplementary appendix). The increase in serpinB2 at the second bronchoscopy likely reflects a pro-coagulation response to the minor bleeding that accompanied bronchial biopsy during the first bronchosocopy. ELISA for serpinB2 protein levels in bronchoalveolar lavage fluid was performed using a commercially available kit (Imubind PAI-2 ELISA, American Diagnostica Inc, Stamford Conn.) according to the manufacturer's directions.
On the technique in general: In an ELISA, binding on a coated surface is turned into a signal by an enzyme label.

Another assay has as its system Periostin. The assay is described as follows: Periostin immunohistochemistry in bronchial biopsies with design-based stereology. The settings on record: one week of treatment with fluticasone. An excerpt: Periostin protein expression was confirmed by immunohistochemistry in bronchial biopsies from a subset of asthmatic and healthy control subjects. Periostin immunolocalized to the subepithelium in all subjects, and quantification confirmed increased expression in asthma (FIG. 3). The degree of immunostaining in asthmatics was not decreased by one week of treatment with fluticasone (FIG. 6, supplementary appendix). Paraffin-embedded sections were deparaffinized and re-hydrated to water. Next, all sections were incubated in 3% hydrogen peroxide/absolute methanol for 10 minutes to block endogenous peroxidase activity. […] Biopsies were formalin-fixed and paraffin-embedded and then analyzed using methods of tissue immunohistochemistry (described above) and design-based stereology.^6 First, the volume of immunohistochemical staining, the volume of submucosal tissue surveyed, and the surface area of the epithelial basal lamina surveyed were determined by point and intersection counting using an integrated microscope (Olympus; Albertslund, Denmark), video camera (JVC Digital Color, JVC A/S; Tatstrup, Denmark), automated microscope stage, and computer (Dell Optiplex GS270 PC running Computer-Assisted Stereology Toolbox [C.A.S.T.] […] Points overlying submucosal tissue that is immunostained and unstained were counted separately along with intersections of test lines with basal lamina. […]

The mark [2] stands for this setting: one week of treatment, n = 16, greater than one indicates suppression.

`CCC(=O)O[C@]1(C(=O)SCF)[C@H](C)C[C@H]2[C@@H]3C[C@H](F)C4=CC(=O)C=C[C@]4(C)[C@@]3(F)[C@@H](O)C[C@@]21C` [fluticasone, fluticasone propionate]: the “CST1 reduction by taqman” value in assay [1] (fluticasone arm as compared to the placebo arm) amounted to 6 fold. In assay [1] (setting [2]), the “FLUTICASONE Change AVERAGE, CEACAM5 (ratio of gene expression before and after treatment)” value was 1.88; the “FLUTICASONE Change AVERAGE, CST1 (ratio of gene expression before and after treatment)” value came to 5.97; the “FLUTICASONE Change AVERAGE, CST4 (ratio of gene expression before and after treatment)” value is given as 5.41; the “FLUTICASONE Change AVERAGE, HDAC9 (ratio of gene expression before and after treatment)” value was 2.10. In addition, the “FLUTICASONE Change AVERAGE, SERPINB1 (ratio of gene expression before and after treatment)” value in assay [1] (setting [2]) was found to be 2.31. The “SerpinB2 protein levels in bronchoalveolar lavage, Mean” value in the assay with serpinB2 protein is 0.91 ng/mL. Further, the “Degree of periostin immunostaining in bronchial biopsies of asthmatics” value in the assay on Periostin is “not decreased”.
